Measurements reported in patent US20070190039A1, “Novel cell lines, and methods of preparation and use thereof” (priority 2003, published 2007).

Tested on: voltage-gated calcium current in HN2A12 cells
Format: cell-based, murine

[Cl][Cd][Cl] [CdCl2]
inhibition of the voltage-gated calcium current: completely inhibited

ω-conotoxin-GVIA
block of the calcium current (N-type part): about 38%
